Here are results for 16 compounds from patent US7858637B2, “Administration of TLR7 ligands and prodrugs thereof for treatment of infection by hepatitis C virus” (priority 2003, dated 2010).

Where two headings read alike, the source gives them in different places.

The subject of this experiment is human peripheral blood mononuclear cells (PBMC). Put plainly: PBMC assay of interferon alpha release (masking). Type of experiment: cell-based. To be noted: Homo sapiens, PBMC, 24 hours exposure, read-out: Amount of INFa relative to that induced by isatoribine at 100 μM. On the procedure: A typical experiment would use human peripheral blood mononuclear cells (PBMC) isolated from a healthy donor and placed in replicate cell culture wells; typically, 2×10^6 to 5×10^6 cells are placed in each well. The PBMC are incubated in the absence of test compounds at 37° C. in a humidified atmosphere containing 5% CO2 for 24 hours to allow stabilization to the culture conditions, and then 100 micromolar isatoribine, the TLR7 ligand and a corresponding TLR7 ligand prodrug are added to separate wells containing PBMC from the same donor; untreated controls are included. The concentrations of TLR7 ligand and TLR7 ligand prodrug may be varied to suit the particular experiment, and the PBMC cultures are then incubated at 37° C. in a humidified atmosphere containing 5% CO2 for a period of time ranging from two hours to 48 hours. Samples of cell culture supernate media are taken during the incubation. These are assayed for cytokine production by ELISA. Additionally the amount of TLR7 ligand and TLR7 ligand prodrug remaining at the end of the incubation may be assayed by LC-MS. Cytokine production is calculated relative to production in the isatoribine control, following subtraction of the cytokine production in untreated controls.
Thus, if the TLR7 ligand generates more interferon alpha (a conveniently measured cytokine) than does the corresponding TLR7 ligand prodrug after a similar duration of exposure and concentration, the TLR7 ligand prodrug may be deemed a “masked” TLR7 ligand prodrug.

On to `COCCOc1nc(N)c2ncn(Cc3ccccc3)c2n1` [Compound 62, 9-Benzyl-2-(2-methoxy-ethoxy)-9H-purin-6-ylamine], for which, for the setting “Table 14, 0.1 μM”, the Emax at 0.1 µM was 0%.

`CCCCCOC(=O)Nc1nc2ccccc2c2c1ncn2CC(C)C` [Compound 34, (1-Isobutyl-1H-imidazo[4,5-c]quinolin-4-yl)-carbamic acid pentyl ester]: the Emax at 100 µM (Table 11) worked out at 0%.

Turning to `Nc1ncc(Br)c(-c2ccccc2)n1` [Compound 48, 5-Bromo-4-phenyl-pyrimidin-2-ylamine], the Emax at 100 µM (Table 13) is 0%.

Take `CCOc1nc(N)nc2c1sc(=O)n2[C@@H]1O[C@H](CO)[C@@H](O)[C@H]1O` [Compound 77, 5-Amino-7-ethoxy-3-β-D-ribofuranosyl-thiazolo[4,5-d]pyrimidin-2-one]: for the setting “Table 9, same blood donor”, the Emax at 100 µM turned out to be 0%.

Consider `CCOC(=O)NCOc1nc(N)nc2c1sc(=O)n2[C@@H]1O[C@H](CO)[C@@H](O)[C@H]1O` [Compound 82, (5-Amino-2-oxo-3-β-D-ribofuranosyl-2,3-dihydro-thiazolo[4,5-d]pyrimidin-7-yloxymethyl)-carbamic acid ethyl ester], for which, for the setting “Table 9, same blood donor”, the Emax at 100 µM amounted to 0%.

For `COc1nc(N)nc2c1sc(=O)n2[C@@H]1O[C@H](CO)[C@@H](O)[C@H]1O` [Compound 79, 5-Amino-7-methoxy-3-β-D-ribofuranosyl-thiazolo[4,5-d]pyrimidin-2-one], the Emax at 100 µM (Table 9, same blood donor) was found to be 0%.

On to `CCOC(=O)N(C)COc1nc(N)nc2c1sc(=O)n2[C@@H]1O[C@H](CO)[C@@H](O)[C@H]1O` [Compound 84, (5-Amino-2-oxo-3-β-D-ribofuranosyl-2,3-dihydro-thiazolo[4,5-d]pyrimidin-7-yloxymethyl)-methyl-carbamic acid ethyl ester], for which, where the note is “Table 9, same blood donor”, the Emax at 100 µM came to 0%.

For the compound `CCOc1nc2c(N)nc(OCCOC)nc2n1Cc1ccccc1` [Compound 64, 9-Benzyl-8-ethoxy-2-(2-methoxy-ethoxy)-9H-purin-6-ylamine], the Emax at 10 µM (Table 14) was found to be 0%.

Consider `C=CCn1c(=O)n([C@@H]2O[C@H](CO)[C@@H](O)[C@H]2O)c2nc(N)nc(OCC)c21` [Compound 45, 7-Allyl-2-amino-6-ethoxy-9-β-D-ribofuranosyl-7,9-dihydro-purin-8-one], for which the Emax at 100 µM (Table 10) was found to be 0%.

As for `CCOC(=O)Nc1nc(-c2ccccc2)c(Br)c(=O)[nH]1` [Compound 36, (5-Bromo-6-oxo-4-phenyl-1,6-dihydro-pyrimidin-2-yl)-carbamic acid ethyl ester], the Emax at 100 µM (Table 13) amounted to 0%.

In the case of `CCCCCOC(=O)Nc1nc(-c2ccccc2)c(Br)c(=O)[nH]1` [Compound 49, (5-Bromo-6-oxo-4-phenyl-1,6-dihydro-pyrimidin-2-yl)-carbamic acid pentyl ester], the Emax at 100 µM (Table 13) was found to be 0%.

For the compound `C=CCn1c(=O)n([C@@H]2O[C@H](COC(=O)[C@@H](N)C(C)C)[C@@H](O)[C@H]2O)c2nc(N)[nH]c(=O)c21` [Compound 68, 7-Allyl-2-Amino-9-(5′-O-L-valinyl-β-D-ribofuranosyl)-7,9-dihydro-1H-purine-6,8-dione], where the note is “Table 10”, the Emax at 100 µM amounted to 0%.

As for `CCCCCOC(=O)Oc1nc2c(N)nc(OCCOC)nc2n1Cc1ccccc1` [Compound 54, Carbonic acid 6-amino-9-benzyl-2-(2-methoxy-ethoxy)-9H-purin-8-yl ester pentyl ester], the Emax at 10 µM (Table 14) is 15%.

In the case of `CCOC(=O)Oc1nc2c(N)nc(OCCOC)nc2n1Cc1ccccc1` [Compound 51, Carbonic acid 6-amino-9-benzyl-2-(2-methoxy-ethoxy)-9H-purin-8-yl ester ethyl ester], the Emax at 32 µM (Table 14, 32 μM) came to 18%.

`C=CCn1c(=O)n([C@@H]2O[C@H](CO)[C@@H](O)[C@H]2O)c2nc(N)ncc21` [Compound 43, 7-Allyl-2-amino-9-β-D-ribofuranosyl-7,9-dihydro-purin-8-one]: the Emax at 100 µM (Table 10) amounted to 0%.

Consider `CCOc1nc(N)nc(-c2ccccc2)c1Br` [Compound 37, 5-Bromo-4-ethoxy-6-phenyl-pyrimidin-2-ylamine], for which the Emax at 100 µM (Table 13) is 0%.
